# Patent US8846626B2, “Drug composition for treating chronic liver disease and its application” (Shuguang Hospital Affiliated with Shanghai University of …, priority 2010, dated 2014)
# What was measured:
# [1] = tested on: rats of bile duct ligation; test: Bile duct ligation (BDL) rat liver fibrosis model; type: in vivo, SD male rats; conditions: BDL 4 weeks; for Hyp (liver tissue Hyp content): intragastric once daily for 3 weeks from week 2; for Hyp (liver tissue Hyp content) / biliary liver fibrosis scores (integral): x±s
# Description: Effect of active component compatibility of Astragalus soup of anti-hepatic fibrosis for rats of bile duct ligation
# 83 SD male rats, SPF grade, weighing 200˜220 g, by the Shanghai Experimental Animal Center of Chinese Academy of Sciences, Certificate of Conformity: SCXK (Shanghai) 2010-0005, fed on the Shanghai Medical University Experimental Animal Center, free access to water.
# Model rats (75 rats) are cut along the ventral midline, exposing the common bile duct, conversely injected hardener into hilus hepatis, ligating proximal and distal ends of the common bile duct, cutting the middle, closing the abdomen for 4 weeks. Sham-operated rats (8 rats) only have abdomen cut, and closed after freeing the common bile duct.
# Starting from the first day of 2nd week of modeling, the model rats were randomly divided into 5 groups of astragalus soup, A/B combination, A alone, B alone, and UDCA, each group has 12 rats. While continuing modeling, the groups of administration are intervened by eight times of clinical dose amount of a 65 kg adult body weight. Before using, the drug compositions of astragalus soup, A/B combination, A alone, B alone, and UDCA (UDCA: 80 mg·kg^−1·d^−1, ig) are respectively diluted with 10 ml of distilled water, and is processed with intragastric administration according to 10 ml/kg rat body weight dose, once daily for 3 weeks. And sham-operation control rats (8) and model control group (15) are set; rats in the normal group and the model control group are processed with intragastric administration by the same volume of distilled water.
# At the end of 4th week, rats are executed to obtain test samples. HE staining and collagen staining of liver tissue, liver tissue Hyp content, serum liver function: ALT, aspartate aminotransferase, AST, and activity of alkaline phosphatase, ALP, albumin, Alb, and total bilirubin, TBil content.
# [2] = tested on: DMN-induced rat liver fibrosis model; test: DMN-induced rat liver fibrosis model, orthogonal design; type: in vivo, Wistar male rats; conditions: result in words; compared with original astragalus soup
# [3] = tested on: DMN-induced rat liver fibrosis model; test: as above; type: in vivo, Wistar male rats
# Description: The DMN-induced rat liver fibrosis model and analysis of orthogonal design is used to obtain the optimal ratio of the composition to lower collagen content in the liver.
# 160 Wistar male rats, (40 in normal group, 120 in the model group), clean level, body weight (150±10) g, provided by the Shanghai Experimental Animal Center of Chinese Academy of Sciences, and is fed, modeled, and observed in Clean Animal room of Shanghai Medical University Experimental Animal Center, free access to water.
# Astragalus Astragalosides and Glycyrrhiza Acid are mixed by weight ratio 3:1, 4:1, 5:1 and 6:1, drug composition A+B in different proportions are randomly selected for subsequent experiments.
# Referring to Ala-Kokko method of modeling (Ala-Kokko L, Pihlajaniemi T, Myers J C et al. Gene expression of type I, III and IV collagens in liver fibrosis induced by dimethylnitrosamine in the rat. Biochem J 1987; 244: 75-9.) DMN is diluted with saline into 0.5% solution, in the model group, 120 rats are intraperitoneally injected by […] dose, once per day, on the beginning 3 days of a week, for 4 weeks. In normal control group, 40 rats are intraperitoneally injected with normal saline of same dose.
# Respectively at the end of three days of modeling, the end of two weeks of modeling, the end of three weeks of modeling, and the end of four weeks of modeling, 10 normal rats, 10 model rats are observed as a model of dynamic observation. Starting from the end of 2 weeks of modeling, the model rats were randomly divided into 1-6 groups of orthogonal design and model group, each having 10 rats. While continuing modeling, the groups of orthogonal design are intervened by eight times of clinical dose amount of a 65 kg adult body weight, administrated respectively in accordance with design amount. Before using, the drug composition is diluted with 10 ml of distilled water, and is processed with intragastric administration according to 10 ml/kg rat body weight dose, once daily for 2 weeks. And normal control rats (10) and model control group (10) are set; rats in the normal group and the model control groups are processed with intragastric administration by the same volume of distilled water.
# Astragalus glycosides A, Glycyrrhiza Acid, B, and drugcomposition A+B are factors for evaluation, each factor were set from two levels (level 1=administration, level 2=no), to obtain the orthogonal design. Model groups and normal groups are set.
# Measurement data is expressed as x±s, the SAS 9.1.2, DAS 2.1.1 and SPSS16.0 statistical software are used to process data, and single-factor analysis of variance is used for comparisons between multiple groups.
SMILES,Hyp (liver tissue Hyp content) [1],biliary liver fibrosis scores (integral) [1],serum liver function ALP [1] [K/100 ml],serum liver function ALT [1] [U/L],serum liver function AST [1] [U/L],serum liver function Alb [1] [g/L],serum liver function TBil [1],reduces generating of TGF-β1 [2],"Hyp (hydroxyproline content in liver tissue) ([3]; DMN modeling 4 weeks, intragastric once daily for 2 weeks from end of week 2, x±s) [µg/g]","hyperplasia stages of rat liver collagen: stage 0 ([3]; number of rats at stage 0, DMN 4 weeks)","hyperplasia stages of rat liver collagen: stage I ([3]; number of rats at stage I, DMN 4 weeks)","hyperplasia stages of rat liver collagen: stage II ([3]; number of rats at stage II, DMN 4 weeks)","hyperplasia stages of rat liver collagen: stage III ([3]; number of rats at stage III, DMN 4 weeks)","BMP-7 mRNA, protein and protein expression of P-Smad1/5/8 in liver tissue ([3]; result in words, liver fibrosis in rat liver tissues by DMN)","serum liver function ALP ([3]; serum, DMN 4 weeks, x±SD) [K/100 ml]","serum liver function ALT ([3]; serum, DMN 4 weeks, x±SD) [U/L]","serum liver function AST ([3]; serum, DMN 4 weeks, x±SD)","serum liver function Alb ([3]; serum, DMN 4 weeks, x±SD) [g/L]","serum liver function TBil ([3]; serum, DMN 4 weeks, x±SD) [µmol/L]"
"CC1(C)[C@@H](O[C@H]2O[C@H](C(=O)O)[C@@H](O)[C@H](O)[C@H]2O[C@@H]2O[C@H](C(=O)O)[C@@H](O)[C@H](O)[C@H]2O)CC[C@]2(C)[C@H]3C(=O)C=C4[C@@H]5C[C@@](C)(C(=O)O)CC[C@]5(C)CC[C@@]4(C)[C@]3(C)CC[C@@H]12 [B, Glycyrrhiza Acid]","772.00 ± 86.81^$ μg/g, wet liver weight",6.50 ± 0.84^$,77.22 ± 4.05,26.66 ± 7.89,93.67 ± 14.46,25.07 ± 5.18,67.35 ± 7.39^$ μmol/L,significantly better than the original astragalus soup,595.74 ± 109.74,0,0,5,4,significantly increase,38.77 ± 17.84,55.18 ± 17.12,76.61 ± 14.09^ U/L,23.11 ± 5.52,10.23 ± 5.42
"C[C@H](CCC(=O)O)[C@H]1CC[C@H]2[C@@H]3[C@@H](O)C[C@@H]4C[C@H](O)CC[C@]4(C)[C@H]3CC[C@]12C [UDCA, Ursodeoxycholic acid]","790.16 ± 129.85^$$ μg/g, wet liver weight",6.83 ± 0.75^$$,79.01 ± 5.80,28.79 ± 8.61,102.80 ± 26.01,24.20 ± 3.64,67.60 ± 9.62^$ μmol/L,–,–,–,–,–,–,–,–,–,–,–,–
